# pIC50: −log10 of the molar value. Read-outs that look alike come from different tables or passages of the source. Strand notation (5' to 3'): a small letter for the sugar, then the base; units joined by * are phosphorothioate-linked, units joined directly phosphodiester-linked; [ ] holds rarer units or linkages, { } end groups; capitals alone tell only the bases. d = 2'-deoxy (DNA)
# Key:
# [1] = tested on: Murine IL-6 secretion; conditions: cited from earlier work
# [2] = tested on: B cell proliferation; conditions: B cell proliferation induced by a stimulatory CpG motif; oligonucleotide added alone or with inhibitory ODN 1735; cited from earlier work
# [3] = tested on: NK Lytic Activity; conditions: cited from earlier work
# [4] = tested on: human B cell proliferation; conditions: human spleen cells or PBNC, ODN at 6 μml, 4-7 days, 3H thymidine, cited from earlier work
# [5] = tested on: CpG-induced cytokine secretion; conditions: RALB/c spleen cells, 24 hr, ELISA, cited from earlier work; for IL-12 secretion: 2 × 10^7 cells/ml, indicated ODN alone; for CpG-S-induced IL-12 secretion: IL-12 secretion induced by addition of CpG ODN 1619 at 30 μg/ml
# [6] = tested on: ODN-induced cytokine expression; conditions: ELISA on supernatants from DBA/2 spleen cells, 2 × 10^7 cells/ml, 24 hr, ODN at 30 μg/ml; cited from earlier work
# [7] = tested on: NK LU; conditions: PBMC, phosphorothioate ODN, cited from earlier work
# [8] = tested on: TNF-α and IL-12 expression; conditions: cell line 3774, no activator, inhibitor at head concentration: Bafilomycin 250 nM, Chloroquine 2.5 μg/ml, Monensin 10 μM, cited from earlier work; for TNF-α, activator: Medium (inhibitor alone): NAC 50 mM, TPCK 50 μM, Gliotoxin 0.1 μg/ml, Bisgliotoxin 0.1 μg/ml, medium alone 37; for IL-12, activator: Medium (inhibitor alone): medium alone 147
# [9] = tested on: Mouse Apolipoprotein B/GAPDH mRNA; assay: Apolipoprotein B mRNA assay in transfected mouse primary hepatocytes (Example 88); type: cell-based
# Protocol: C57BL6 male mice, 7 weeks of age were used to extract and plate mouse primary hepatocytes in 96-well plates (without overlay) (Celsis/Bioreclamation IVT). Transfection of primary hepatocytes was carried out with lipofectin (Life Technologies, cat. No. 18292-037) using the manufacturer's protocol, using 0.5 ul of Lipofectin per 96-plate well. Twelve, 1:3 siRNA duplex dilutions were created starting at 6 uM. 10 ul of 10× oligo was then lipoplexed with a prepared mixture of 9.5 ul of In vitro Gro HI Medium (Celsis Cat. Z99009) serum-free medium and 0.5 ul of Lipofectin per well. After a 10-15 minute incubation, 20 ul of lipoplexed oligo was added to primary hepatocytes in 80 ul of In vitro Gro HI Medium to bring the final volume to 100 ul per well. 24 hours after transfection, cells were lysed.
# Total mRNA was purified from cell lysates using MagMAX™-96 Total RNA Isolation Kit (Life Technologies, AM1830); 15 ul of cDNA was synthesized with High Capacity cDNA Reverse Transcription Kit with RNase Inhibitor (Life Technologies, 4374967). Gene expression was evaluated by Real-Time PCR on a Lightcycler 480 (Roche) using a Probes Master Mix (Roche, 04 707 494 001) according to manufacturer's protocol using the following primers: Mouse apolipoprotein B primers:
# [Template: (GenBank Accession Number M35186)]
# The delta delta Ct method was used to calculate values. […]
# [10] = tested on: (Ap)9A; conditions: duplex with (Ap)9A; cited from earlier work
# [11] = tested on: CD40; conditions: US 6,218,371 Table 3; cited from earlier work
# [12] = tested on: T cell proliferation; conditions: US 6,218,371 Table 3; cited from earlier work
# [13] = tested on: CD86; conditions: US 6,218,371 Table 3; cited from earlier work
# [14] = T cell depleted spleen cells from DBA/2 mice, phosphodiester O-ODN 20 μM, 24 hr, mean ± SD of triplicates
# [15] = expt. 1 (one donor), US 6,214,806 Table 5
# [16] = expt. 1, cells alone 0.00, US 6,239,116 Table 11
compound,measurement,setting,value
5b (DNA ATGGAAGGTCCAACGTTCTC; chemistry not given here) [Oligonucleotide 5b],IL-6,[1]; [14],1124.5 ± 126.2 pg/mL
same,IL-6,[1]; murine IL-6 secretion,1124.5 ± 126.2 pg/mL
5c (DNA ATCGACTCTCGAGCGTTCTC; chemistry not fully specified) [Oligonucleotide 5c],IL-6,[1]; [14],1783.0 ± 189.5 pg/mL
same,IL-6,[1]; murine IL-6 secretion,1783.0 ± 189.5 pg/mL
5d (DNA ATGGAAGGTCCAGTGTTCTC; chemistry not given here) [Oligonucleotide 5d],IL-6,[1]; [14],≤10 pg/mL
same,IL-6,[1]; murine IL-6 secretion,≤10 pg/mL
"5e (DNA ATCGACTCTCGAGCCTTCTC; Z modified cytosine, further chemistry not given here) [Oligonucleotide 5e]",IL-6,[1]; [14],851.1 ± 114.4 pg/mL
same,IL-6,[1]; murine IL-6 secretion,851.1 ± 114.4 pg/mL
"5f (DNA ATCGACTCTCGAGCGTTCTC; Z-modified nucleotides, chemistry not fully specified) [Oligonucleotide 5f]",IL-6,[1]; [14],≤10 pg/mL
same,IL-6,[1]; murine IL-6 secretion,≤10 pg/mL
"1720 (DNA 1720 (TCCATGAGCTTCCTGATGCT); as printed in the source, key not given here) [Oligonucleotide 1720]",cpm (B cell proliferation),[2],601 cpm
1841 (DNA TCCATAGCGTTCCTAGCGTT; chemistry not given here) [Oligonucleotide 1841],NK Lytic Activity (LU),"[3]; human PBMC cultured with ODN 6 μg/ml for 24 hr, lysis of 51Cr-labeled K562 cells",1.45 LU
same,LU (NK lytic activity),"[3]; human PBMC, ODN 6 μg/ml for 24 hr, lysis of Cr-labeled K562 cells, cells alone 0.01",1.45 LU
same,"Stimulation Index, expt. 1","[4]; US 6,214,806 Table 6",3
same,"Stimulation Index, expt. 1","[4]; US 6,239,116 Table 12",3
1895 (DNA GCGCGCGCGCGCGCGCGCGC; chemistry not given here) [Oligonucleotide 1895],IL-12 secretion,[5],123 pg/mL
same,CpG-S-induced IL-12 secretion,[5],2719 pg/mL
1896 (DNA CCGGCCGGCCGGCCGGCCGG; chemistry not given here) [Oligonucleotide 1896],IL-12 secretion,[5],292 pg/mL
same,CpG-S-induced IL-12 secretion,[5],2740 pg/mL
1952 (DNA TCCATGTCGTTCCGCGCGCG; chemistry not given here) [Oligonucleotide 1952],ODN-induced cytokine expression IFN-γ,[6],2135 pg/mL
same,ODN-induced cytokine expression IL-6,[6],559 pg/mL
same,ODN-induced cytokine expression IL-12,[6],1615 pg/mL
1953 (DNA TCCATGTCGTTCCTGCCGCT; chemistry not given here) [Oligonucleotide 1953],ODN-induced cytokine expression IFN-γ,[6],2000 pg/mL
same,ODN-induced cytokine expression IL-6,[6],557 pg/mL
same,ODN-induced cytokine expression IL-12,[6],1854 pg/mL
1959 (DNA GCGGCGGGCGGCGCGCGCCC; chemistry not given here) [Oligonucleotide 1959],IL-12 secretion,[5],270 pg/mL
same,CpG-S-induced IL-12 secretion,[5],2539 pg/mL
"1963 (DNA TCCTTGTCGTTCCTGTCGTT; DNA, all phosphorothioate, methylation of C not given here) [Oligonucleotide 1963]","NK LU, expt. 1",[7]; [15],3.42 LU
same,"NK LU, expt. 1",[7]; [16],3.42 LU
same,"Stimulation Index, expt. 1","[4]; US 6,214,806 Table 6",3
same,"Stimulation Index, expt. 1","[4]; US 6,239,116 Table 12",3
1966 (DNA dT*dC*dG*dT*dC*dG*dC*dT*dG*dT*dC*dT*dC*dC*dG*dC*dT*dT*dC*dT*dT) [Oligonucleotide 1966],"NK LU, expt. 1",[7]; [15],2.62 LU
same,"NK LU, expt. 1",[7]; [16],2.62 LU
1990 (DNA dT*dC*dC*dA*dT*dG*dC*dG*dT*dG*dC*dG*dT*dG*dC*dG*dT*dT*dT*dT) [Oligonucleotide 1990],"NK LU, expt. 1",[7]; [15],2.10 LU
same,"NK LU, expt. 1",[7]; [16],2.10 LU
1991 (DNA dT*dC*dC*dA*dT*dG*dC*dG*dT*dT*dG*dC*dG*dT*dT*dG*dC*dG*dT*dT) [Oligonucleotide 1991],"NK LU, expt. 1",[7]; [15],0.89 LU
same,"NK LU, expt. 1",[7]; [16],0.89 LU
2037 (DNA TCCATGCCGTTCCTGCCGTT; chemistry not given here) [Oligonucleotide 2037],IL-12 secretion,[5],423 pg/mL
same,CpG-S-induced IL-12 secretion,[5],2847 pg/mL
"19792 (DNA TCCATGTCGTTCCTGTCGTT; phosphorothioate, Z modified cytosine, chemistry not fully specified) [Oligonucleotide 19792]","NK LU, expt. 1",[7]; [15],1.32 LU
"CCN(CC)CCCC(C)Nc1ccnc2cc(Cl)ccc12 (stereo not shown) [Chloroquine, chloroquine, reference compound]","TNF-α, activator: Medium (inhibitor alone)",[8],27 pg/mL
same,"IL-12, activator: Medium (inhibitor alone)",[8],20 pg/mL
"C[Si](C)(C)C[C@@H](O)[C@@H]1CCCN1 [Compound 5a, (S)-2-(Trimethylsilyl)-1-((S)-1-pyrrolidin-2-yl)ethanol]",IL-6,[1]; [14],1096.4 ± 372.0 pg/mL
same,IL-6,[1]; murine IL-6 secretion,1096.4 ± 372.0 pg/mL
CN1C(=O)[C@]23CC4=CC=C[C@H](O)[C@H]4N2C(=O)[C@@]1(CO)SS3 [Gliotoxin],"TNF-α, activator: Medium (inhibitor alone)",[8],17 pg/mL
CC[C@@]1([C@@H]2O[C@@H]([C@H]3O[C@@](O)(CO)[C@H](C)C[C@@H]3C)C[C@@H]2C)CC[C@H]([C@]2(C)CC[C@]3(C[C@H](O)[C@@H](C)[C@@H]([C@@H](C)[C@@H](OC)[C@H](C)C(=O)O)O3)O2)O1 [Monensin],"TNF-α, activator: Medium (inhibitor alone)",[8],22 pg/mL
same,"IL-12, activator: Medium (inhibitor alone)",[8],73 pg/mL
CC(=O)N[C@@H](CS)C(=O)O [NAC],"TNF-α, activator: Medium (inhibitor alone)",[8],10 pg/mL
Cc1ccc(S(=O)(=O)N[C@@H](Cc2ccccc2)C(=O)CCl)cc1 [TPCK],"TNF-α, activator: Medium (inhibitor alone)",[8],24 pg/mL
(All(Rp))-GsTs5mCs5mCs5mCsTsGsAsAsGsAsTsGsTs5mCsAsAsTsGs5mC (DNA GTCCCTGAAGATGTCAATGC; chemistry not fully specified) [ONT-82],pIC50,"[9]; relative IC50, bottom 0 and top 100 constrained, read-out: IC50 for Suppression of Mouse Apolipoprotein B/GAPDH mRNA Levels",7.19
same,Hill Slope,"[9]; suppression of ApoB/GAPDH mRNA, bottom 0 and top 100 constrained",−0.3
(Rp)-(Ups)9U,Tm value of duplex compared with natural-(Up)9U/(Ap)9A,[10],higher Tm value
(Sp)-(Ups)9U,Tm value of duplex compared with natural-(Up)9U/(Ap)9A,[10],did not form a duplex
Bafilomycin,"TNF-α, activator: Medium (inhibitor alone)",[8],46 pg/mL
same,"IL-12, activator: Medium (inhibitor alone)",[8],102 pg/mL
GM-CSF,CD40 (4 Exp.),[11],2.5
same,T cell proliferation,[12],13.3
same,CD86 (5 Exp),[13],1.9

# Source: patent US10590413B2, “Chiral control” (WAVE LIFE SCIENCES LTD., priority 2012, dated 2020)
